The results in this text go back to US7414068B2, “Benzopyran derivatives substituted with secondary amines including tetrazole, method for the preparation thereof and pharmaceutical compositions containing them” (Dongbu Hannong Chemical Co., Ltd., priority 2002, dated 2008).

The structures appear in SMILES notation.

A word on the IC50: it is the point on the concentration scale where inhibition reaches its midpoint. Low values mean greater potency, high ones weaker potency.

In the experiment the test system is cortical neuron cells. Description: Protective effect on iron-induced neuronal cell injury (LDH release). The experiment is classed as cell-based. To be noted: FeSO4 50 μM; for protective effect on neuron cell: Inhibition (%, 30 μM compound addition): LDH reduction vs control; for IC50: LDH. As for the experimental part:
From the brains of 17˜18 day-old embryos, cortical neuron cells were isolated and then, cultured at 37° C. for 7˜9 days in a 5% CO2 incubator. The said cortical cell cultures were washed twice with MEM (Minimum essential medium) to reduce the serum level to 0.2%. […] Then, the compound of the said concentration was pre-treated for 30 min, respectively. For the experiment, test compound was dissolved in DMSO and diluted in a medium. At this time, the final concentration of DMSO was not allowed to exceed 0.1%. For control group, only vehicle was applied.
After the said pre-treatment, FeSO4 was added to the medium for a final concentration to be 50 μM. The medium was cultured in CO2 incubator for 24 hours. During the incubation, lactate dehydrogenase (LDH) was released by iron. The serum level of lactate dehydrogenase released into the medium was measured to assess necrosis of neuronal cell by the oxidative toxicity of iron. The protective effect on neuron cells of the test compounds was evaluated by calculating the LDH reduction rate of treatment-group compared with that of the control group.
For orientation: LDH in the medium is a marker of cell lysis.

Consider `COC(OC)[C@@]1(C)Oc2ccc([N+](=O)[O-])cc2[C@@H](N(Cc2nnn(C)n2)c2ccc(OC(F)(F)F)cc2)[C@@H]1O` [Example 80, (2S,3S,4R)-6-nitro-4-[N-(4-trifluoromethoxyphenyl)-N-(2-methyl-2H-tetrazol-5-ylmethyl)amino]-3-hydroxy-2-methyl-2-dimethoxymethyl-3,4-dihydro-2H-1-benzopyran], for which, under “24 hours”, the “protective effect on neuron cell: Inhibition (%, 30 μM compound addition)” value amounted to 95%. Besides, the IC50 (Cortical neurone, 24 h) was 5 µM.
Take `COC(OC)[C@@]1(C)Oc2ccc([N+](=O)[O-])cc2[C@@H](N(Cc2nnn(C)n2)c2ccc(C(F)(F)F)cc2)[C@@H]1O` [Example 74, (2S,3S,4R)-6-nitro-4-[N-(4-trifluoromethylphenyl)-N-(2-methyl-2H-tetrazol-5-ylmethyl)amino]-3-hydroxy-2-methyl-2-dimethoxymethyl-3,4-dihydro-2H-1-benzopyran]: the “protective effect on neuron cell: Inhibition (%, 30 μM compound addition)” value (24 hours) is reported as 90%. Also, the IC50 (Cortical neurone, 24 h) came to 5.3 µM.
On the same counts, the results for `COC[C@]1(C)Oc2ccc([N+](=O)[O-])cc2[C@@H](N(Cc2nnn(C)n2)c2ccc(F)cc2)[C@@H]1O` [Example 99, (2S,3S,4R)-6-nitro-4-[N-(4-fluorophenyl)-N-(2-methyl-2H-tetrazol-5-ylmethyl)amino]-3-hydroxy-2-methyl-2-methoxymethyl-3,4-dihydro-2H-1-benzopyran] are 69% and 20.8 µM.
Turning to `COC(OC)[C@@]1(C)Oc2ccc(N)cc2[C@H](N(Cc2nnn(C)n2)c2cc(C)ccc2O)[C@H]1O` [Example 71, (2S,3R,4S)-6-amino-4-[N-(2-hydroxy-5-methylphenyl)-N-(2-methyl-2H-tetrazol-5-ylmethyl)amino]-3-hydroxy-2-methyl-2-dimethoxymethyl-3,4-dihydro-2H-1-benzopyran], where the note is “24 hours”, the “protective effect on neuron cell: Inhibition (%, 30 μM compound addition)” value was 89% and the IC50 came to 0.9 µM. Under “Cortical neurone, 24 h”, this compound returned an IC50 of less than 1 µM.
As to `COC(OC)[C@]1(C)Oc2ccc([N+](=O)[O-])cc2[C@H](N(Cc2nnn(C)n2)c2ccc(C(F)(F)F)cc2)[C@H]1O` [Example 78, (2R,3R,4S)-6-nitro-4-[N-(4-trifluoromethylphenyl)-N-(2-methyl-2H-tetrazol-5-ylmethyl)amino]-3-hydroxy-2-methyl-2-dimethoxymethyl-3,4-dihydro-2H-1-benzopyran], where the note is “24 hours”, the “protective effect on neuron cell: Inhibition (%, 30 μM compound addition)” value came to 69%. The compound also displayed an IC50 (Cortical neurone, 24 h) of 4.4 µM.
As for `COC(OC)[C@]1(C)Oc2ccc([N+](=O)[O-])cc2[C@@H](N(Cc2nnn(C)n2)c2ccc(C(F)(F)F)cc2)[C@@H]1O` [Example 76, (2R,3S,4R)-6-nitro-4-[N-(4-trifluoromethylphenyl)-N-(2-methyl-2H-tetrazol-5-ylmethyl)amino]-3-hydroxy-2-methyl-2-dimethoxymethyl-3,4-dihydro-2H-1-benzopyran], the “protective effect on neuron cell: Inhibition (%, 30 μM compound addition)” value (24 hours) came out at 52%. Also, the midpoint of inhibition (Cortical neurone, 24 h), the IC50, lay at 5.7 µM.
On the same counts, the results for `COC(OC)[C@]1(C)Oc2ccc([N+](=O)[O-])cc2[C@@H](N(Cc2nnn(C)n2)c2ccc(OC(F)(F)F)cc2)[C@@H]1O` [Example 84, (2R,3S,4R)-6-nitro-4-[N-(4-trifluoromethoxyphenyl)-N-(2-methyl-2H-tetrazol-5-ylmethyl)amino]-3-hydroxy-2-methyl-2-dimethoxymethyl-3,4-dihydro-2H-1-benzopyran] are 48% and 5.6 µM.
On the same counts, the results for `COC(OC)[C@@]1(C)Oc2ccc([N+](=O)[O-])cc2[C@H](N(Cc2nnn(C)n2)c2ccc(C(F)(F)F)cc2)[C@H]1O` [Example 33, (2S,3R,4S)-6-nitro-4-[N-(4-trifluoromethylphenyl)-N-(2-methyl-2H-tetrazol-5-ylmethyl)amino]-3-hydroxy-2-methyl-2-dimethoxymethyl-3,4-dihydro-2H-1-benzopyran] are 91% and 6 µM.
